# Experimental data: US12378249B2, “Isoquinoline compounds and uses thereof” (Genentech, Inc., priority 2018, dated 2025)
# How the values were obtained:
# HPK1 [1] = target: HPK1 (Homo sapiens (Human), UniProt Q92918); experiment: HPK1 Lantha Binding Assay (Lanth); conditions: 2 nM HPK1, 15 nM Tracer222, Morrison Ki fit, read-out: HPK1 Ki (nM), L = Lanth
# Description: Example B2: HPK1 Lantha Binding Assay (“Lanth”)
# Procedure: I. Compound Dilution:
# The compounds to be tested were diluted by preparing 12.5 uL/well of 5 mM compound (100×) in columns 2 and 13 and 10 ul/well of DMSO in columns 3-12, 14-23, and wells A1-H1 and I24-P24 of the compound plate using a Bravo liquid handling platform. For the reference compound, the top concentration was 1 mM. To the plate was added 10 ul 2 mM staurosporine in wells J1-P1 and A24-H24. A 11 point 5-fold compound serial dilution was performed using the Bravo liquid handling platform. From the plate were transferred 2.5 ul of the solutions from column 2 and column 13 to the 10 ul of DMSO in columns 3 and 14 & so on. The compound plate was centrifuged at 2500 rpm for 1 min. From the compound plate was transferred 80 nl of the compounds into an assay plate using the Echo liquid handler system. One compound plate makes two assay plates. Each assay plate is sealed and stored in an N2 cabinet.
# The following assay concentrations and times were used: 2 nM HPK1, 2 nM Eu-Anti-GST Ab, and 15 nM Tracer222, with 60 min incubation time.
# III. HPK Lantha Binding Assay:
# For the binding assay, 4 ul 2X HPK1 and Eu-anti-GST antibody were added to each well of the assay plate using a Multidrop reagent dispenser. The solutions were incubated in a 23 C incubator for 1 h. To each well of the assay plate was added 4 ul 2× Tracer-222 using a Multidrop reagent dispenser. The solutions were again incubated in a 23 C incubator for 1 h. The results of the assay were read using an Envision plate reader with the following parameters:TR_FRET, 340ex/615 and 665em; 100 usec Delay; and 200 usec integration.
# Compound Ki was analyzed using Morrison ki fit model in XL-fit • a. fit=(1-((((E+x)+(Ki*(1+(S/Kd))))−(((((E+x)+(Ki*(1+(S/Kd))))^2)−((4*E)*x))^0.5))/(2*E))) • res=(y-fit) • b. Parameters: • E=enzyme concentration • S=Tracer222 concentration, Kd=Tracer222 Kd • All measurements reported using the same units (uM)
# Exemplary compounds were tested in the binding assays.
# [2] = system: primary human pan T cells; experiment: Human T-cell IL2 Induction Assay; format: cell-based; conditions: anti-CD3/anti-CD28 stimulated, 4 hours
# Description: Example B3: Human T-cell IL2 Induction Assay
# Anti-CD3 and anti-CD28 activates TCR signaling in primary human pan T cells leading to IL-2 promoter induction. Secreted IL-2 in cell culture supernatant is detected by electrochemiluminescence using a capture antibody against IL-2 and an anti-IL-2 antibody labeled with SULFO-tag.
# See www.mesoscale.com for additional electrochemiluminescence technology information.
# Incubate primary human pan T cells with varying concentrations of test compounds for 30 minutes in a humidified incubator at 37° C. and 5% CO2. Transfer cells to a plate pre-coated with a fixed concentration of anti-human CD3 (determined separately for each donor lot) and add soluble anti-human CD28 (final concentration=1 μg/ml). Stimulate cells in a humidified incubator at 37° C. and 5% CO2 for 4 hours. Transfer 25 μl of supernatant to a MSD single spot plate pre-coated with an anti-human IL-2 antibody. Incubate MSD plate overnight at 4° C. with gentle shaking. Wash MSD plate 4× with wash buffer. Add SULFO-tagged detection antibody at a 1:50 dilution and incubate at room temperature shaking for 2 hours. Wash MSD plate 4× with wash buffer and add 150 μl 2×MSD read buffer. Read on an MSD instrument. Normalize data to stimulated/untreated controls to calculate % activity at each concentration of compound.
# • Frozen Primary Human Pan-T Cells (StemCell Technologies #70024) • anti-human CD3 (OKT3 clone) (eBioscience #16-0037-81) • anti-human CD28 (CD28.2 clone) (BD #555725) • 96-well Human IL-2 tissue culture kit (MSD #K151AHB-4) Instrumentation: • Biomek FX for liquid handling (Beckman Coulter) • MSD SECTOR S 600 (Meso Scale Discovery)
# Exemplary compounds of Formula (I) were tested in the human T-cell IL-2 induction assays. The % increase measured for IL-2 in cells treated by the test compounds relative to untreated cells are provided in Table B2 for certain compounds.
# HPK1 [3] = target: HPK1 (Homo sapiens (Human), UniProt Q92918, S171E/T165E); experiment: HPK1-FL HTRF Enzymatic Assay (HTRF); format: biochemical; conditions: HPK full length T165E S171E 0.125 nM, ATP 1 mM, Biotin-SLP76 100 nM, read-out: HPK1 Ki (nM), H = HTRF
# Method in brief: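 Ki derived from % activity calculated from the TR-FRET 665/620 ratio, using Eu-anti-pSLP76 and SA-XL665 detection added for 60 min. Reaction: compound preincubated 30 min with full-length double-mutant HPK1, then 60 min with Biotin-SLP-76 and 1 mM ATP, pH 7.5 HEPES buffer.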
# Sequence of HPK1 (Homo sapiens (Human), UniProt Q92918, S171E/T165E) (Q92918 whole entry T165E/S171E): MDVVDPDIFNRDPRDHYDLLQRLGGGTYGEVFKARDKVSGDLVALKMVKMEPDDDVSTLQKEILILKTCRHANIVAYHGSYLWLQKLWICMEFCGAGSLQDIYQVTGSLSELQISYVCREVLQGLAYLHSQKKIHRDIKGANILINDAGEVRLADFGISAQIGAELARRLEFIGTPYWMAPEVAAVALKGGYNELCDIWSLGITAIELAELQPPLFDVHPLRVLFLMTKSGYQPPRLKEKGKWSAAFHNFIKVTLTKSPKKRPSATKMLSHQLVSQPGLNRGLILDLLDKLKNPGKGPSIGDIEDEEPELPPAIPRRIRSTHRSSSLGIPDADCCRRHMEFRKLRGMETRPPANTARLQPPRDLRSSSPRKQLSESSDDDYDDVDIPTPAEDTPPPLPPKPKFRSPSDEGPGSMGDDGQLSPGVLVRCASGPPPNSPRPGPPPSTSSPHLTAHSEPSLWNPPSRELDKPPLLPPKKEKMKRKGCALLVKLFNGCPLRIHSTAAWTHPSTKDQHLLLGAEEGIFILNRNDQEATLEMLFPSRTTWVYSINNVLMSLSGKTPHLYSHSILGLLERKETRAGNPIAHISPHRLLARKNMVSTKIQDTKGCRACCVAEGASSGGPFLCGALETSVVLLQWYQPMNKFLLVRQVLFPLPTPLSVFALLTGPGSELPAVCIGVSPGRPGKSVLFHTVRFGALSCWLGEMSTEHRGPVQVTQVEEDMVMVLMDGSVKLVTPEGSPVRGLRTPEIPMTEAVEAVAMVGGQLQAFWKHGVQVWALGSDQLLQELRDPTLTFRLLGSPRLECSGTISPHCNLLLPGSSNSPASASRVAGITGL
# Sequence of HPK1 (Homo sapiens (Human), UniProt Q92918) (Q92918 1-346): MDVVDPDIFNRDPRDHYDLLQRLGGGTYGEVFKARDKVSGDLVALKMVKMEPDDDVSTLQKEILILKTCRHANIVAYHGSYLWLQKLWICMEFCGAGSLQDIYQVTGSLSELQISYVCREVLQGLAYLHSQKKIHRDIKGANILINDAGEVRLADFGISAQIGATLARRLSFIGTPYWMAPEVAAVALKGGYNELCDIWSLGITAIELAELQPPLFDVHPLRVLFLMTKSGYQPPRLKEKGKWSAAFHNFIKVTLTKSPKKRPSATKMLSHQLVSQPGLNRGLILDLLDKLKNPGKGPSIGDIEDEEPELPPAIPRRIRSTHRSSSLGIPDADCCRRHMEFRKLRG
SMILES,Ki (HPK1 [1]) [nM],Ki (HPK1 [3]) [nM],other results
"Clc1cccc(Cl)c1-c1ccc2cnc(Nc3cnn(C4CCOC4)c3)cc2c1 (racemic) [Compound 103, (+/-)-6-(2,6-dichlorophenyl)-N-(1-(tetrahydrofuran-3-yl)-1H-pyrazol-4-yl)isoquinolin-3-amine]",180,,
"Fc1cccc(Cl)c1-c1ccc2cnc(Nc3ccncn3)cc2c1 [Compound 104, 6-(2-chloro-6-fluorophenyl)-N-(pyrimidin-4-yl)isoquinolin-3-amine]",57,,
"Cc1c(N)cncc1-c1cc2cc(Nc3cc4n(n3)CC(=O)N(C(C)C)CC4)ncc2c(F)c1F [Compound 118, 2-((6-(5-amino-4-methylpyridin-3-yl)-7,8-difluoroisoquinolin-3-yl)amino)-6-isopropyl-5,6-dihydro-4H-pyrazolo[1,5-d][1,4]diazepin-7(8H)-one]",,0.065,% IL-2 increase relative to untreated cells ([2]; assayed concentration 0.31 μM): 400%
"Cc1c(N)cncc1-c1cc2cc(Nc3cc4n(n3)CC(=O)N(C(C)C)CC4)ncc2cc1F [Compound 119, 2-((6-(5-amino-4-methylpyridin-3-yl)-7-fluoroisoquinolin-3-yl)amino)-6-isopropyl-5,6-dihydro-4H-pyrazolo[1,5-d][1,4]diazepin-7(8H)-one]",,0.05,% IL-2 increase relative to untreated cells ([2]; assayed concentration 0.10 μM): 542%
"Cc1c(N)cncc1-c1cc2cc(Nc3cc4n(n3)CC(=O)N(C(C)C)CC4)ncc2c(C)c1C#N [Compound 130, 6-(5-amino-4-methyl-3-pyridyl)-3-[(6-isopropyl-7-oxo-5,8-dihydro-4H-pyrazolo[1,5-d][1,4]diazepin-2-yl)amino]-8-methyl-isoquinoline-7-carbonitrile]",,0.068,% IL-2 increase relative to untreated cells ([2]; assayed concentration 0.10 μM): 308%
"Cc1c(N)cncc1-c1cc2cc(Nc3cc4n(n3)Cc3nncn3CC4)ncc2cc1F [Compound 139, N-(6-(5-amino-4-methylpyridin-3-yl)-7-fluoroisoquinolin-3-yl)-5,6-dihydro-11H-pyrazolo[1,5-d][1,2,4]triazolo[4,3-a][1,4]diazepin-8-amine]",,0.076,% IL-2 increase relative to untreated cells ([2]; assayed concentration 0.31 μM): 154%
"Cc1c(-c2cc3cc(Nc4cc5n(n4)CC(=O)N(C(C)C)C[C@@H]5O)ncc3cc2F)cnc2c1NCCO2 [Compound 141b, (S)-2-((7-fluoro-6-(8-methyl-2,3-dihydro-1H-pyrido[2,3-b][1,4]oxazin-7-yl)isoquinolin-3-yl)amino)-4-hydroxy-6-isopropyl-5,6-dihydro-4H-pyrazolo[1,5-d][1,4]diazepin-7(8H)-one]",,,% IL-2 increase relative to untreated cells ([2]; assayed concentration 0.31 μM): 350%
"Cc1c(-c2cc3cc(Nc4cc5n(n4)CC(=O)N(C)OC5)ncc3cc2F)cnc2c1NCCO2 [Compound 244, 2-((7-fluoro-6-(8-methyl-2,3-dihydro-1H-pyrido[2,3-b][1,4]oxazin-7-yl)isoquinolin-3-yl)amino)-6-methyl-4H,6H-pyrazolo[1,5-e][1,2,5]oxadiazepin-7(8H)-one]",,0.013,

# Now from value to compound, other results behind:
Ki (HPK1 [1]) [nM],Ki (HPK1 [3]) [nM],SMILES,other results
68,,"CN1CCC(Cn2cc(Nc3cc4cc(-c5c(Cl)cccc5Cl)ccc4cn3)cn2)C1 (racemic) [Compound 102, (+/-)-6-(2,6-dichlorophenyl)-N-(1-((1-methylpyrrolidin-3-yl)methyl)-1H-pyrazol-4-yl)isoquinolin-3-amine]",
110,,"Clc1cccc(Cl)c1-c1ccc2cnc(Nc3ccncn3)cc2c1 [Compound 101, 6-(2,6-dichlorophenyl)-N-(pyrimidin-4-yl)isoquinolin-3-amine]",
6.6,,"Cc1ccncc1-c1ccc2cnc(Nc3cc(C(F)F)ccn3)cc2c1 [Compound 106, N-(4-(difluoromethyl)pyridin-2-yl)-6-(4-methylpyridin-3-yl)isoquinolin-3-amine]",
9,,"Cc1cc(Nc2cc3cc(-c4cnccc4C)ccc3cn2)ncn1 [Compound 107, 6-(4-methylpyridin-3-yl)-N-(6-methylpyrimidin-4-yl)isoquinolin-3-amine]",
4.4,,"Cc1ccnc(Nc2cc3cc(-c4cnccc4C)ccc3cn2)c1 [Compound 108, N-(4-methylpyridin-2-yl)-6-(4-methylpyridin-3-yl)isoquinolin-3-amine]",
,0.086,"Cc1c(N)cncc1-c1cc2cc(Nc3cc4n(n3)CC(=O)N(C(C)C)CC4)ncc2cc1Cl [Compound 140, 2-((6-(5-amino-4-methylpyridin-3-yl)-7-chloroisoquinolin-3-yl)amino)-6-isopropyl-5,6-dihydro-4H-pyrazolo[1,5-d][1,4]diazepin-7(8H)-one]",% IL-2 increase relative to untreated cells ([2]; assayed concentration 0.10 μM): 304%
